Converted amounts (≈) assume the structure as drawn. Where two headings read alike, the source gives them in different places.
Tests used:
E. coli = assay: etest on agar containing the booster; type: cell-based; conditions: Escherichia coli, read-out: MIC
Excerpt: (§1) The corresponding tests are made based on the usual MIC test: the etest® (Biomerieux) strip is deposited onto the surface of a seeded agar medium in which the booster has been incorporated. This test enables solvent effect risks, that is a possible interaction with the solvent used in vitro, to be minimised.
(§2) The control corresponds to the test made without cineol. A control is made in each solvent tested: distilled water, Tween/water and DMSO. • ED control=antibiotic alone in distilled water • DMSO control=antibiotic alone in DMSO • TE control=antibiotic alone in Tween® 80

Pasteurella = assay: etest on agar containing the booster; type: cell-based
Excerpt: The corresponding tests are made based on the usual MIC test: the etest® (Biomerieux) strip is deposited onto the surface of a seeded agar medium in which the booster has been incorporated.
as §2
Other e-tests are also made on Pasteurella.

Strain 10168/MRSA = assay: Resistance: occurrence of resistant mutants; type: cell-based, S. aureus; conditions: 4 times the MIC; 48 h incubation; DMSO
Method: (§3) After 48 h incubation, the presence or absence of colonies likely to be resistant mutants is observed.

Strain 9003/BLSE = assay: Resistance: occurrence of resistant mutants; type: cell-based; conditions: 4 times the MIC; 48 h incubation; DMSO
Method: as §3

Staphylococcus = assay: etest on agar containing the booster; type: cell-based; conditions: MRSA 10178, read-out: MIC
Excerpt: as §1, §2

[1] = Coli 8150, Cineol 1 mg Tween/water
[2] = Coli 8150, Cineol 4 mg Tween/water
[3] = Coli 8150, Cineol 16 mg Tween/water
[4] = Coli 8150, DMSO control (antibiotic alone)
[5] = Coli 8150, ED control (antibiotic alone in distilled water)
[6] = Coli 8150, Tween water control (antibiotic alone)
[7] = strain 14012, 5 mg cineol water
[8] = strain 14012, 10 mg cineol DMSO
[9] = strain 14012, 10 mg cineol water
[10] = strain 14014, 5 mg cineol water
[11] = strain 14014, 10 mg cineol DMSO
[12] = strain 14014, 10 mg cineol water

Structure (SMILES) | MIC (E. coli; Coli 8150, Cineol 1 mg DMSO) | MIC (E. coli; [1]) | MIC (E. coli; Coli 8150, Cineol 4 mg DMSO) | MIC (E. coli; [2]) | MIC (E. coli; Coli 8150, Cineol 16 mg DMSO) | MIC (E. coli; [3]) | MIC (E. coli; [4]) | MIC (E. coli; [5]) | MIC (E. coli; [6]) | MIC (e-test) (Pasteurella; strain 14012, 5 mg cineol DMSO) | MIC (e-test) (Pasteurella; strain 14012, 5 mg cineol TE) | MIC (e-test) (Pasteurella; [7]) | MIC (e-test) (Pasteurella; [8]) | MIC (e-test) (Pasteurella; strain 14012, 10 mg cineol TE) | MIC (e-test) (Pasteurella; [9]) | MIC (e-test) (Pasteurella; strain 14012, DMSO control) | MIC (e-test) (Pasteurella; strain 14012, ED control) | MIC (e-test) (Pasteurella; strain 14012, TE control) | MIC (e-test) (Pasteurella; strain 14014, 5 mg cineol DMSO) | MIC (e-test) (Pasteurella; strain 14014, 5 mg cineol TE) | other results
CO[C@@]1(NC(=O)Cc2cccs2)C(=O)N2C(C(=O)O)=C(COC(N)=O)CS[C@@H]21 [Cefoxitin] | 8 mg/L (≈ 18.7 µM) | 3 mg/L (≈ 7.02 µM) | 3 mg/L (≈ 7.02 µM) | 3 mg/L (≈ 7.02 µM) | 3 mg/L (≈ 7.02 µM) | 1 mg/L (≈ 2.34 µM) | 8 mg/L (≈ 18.7 µM) | 3 mg/L (≈ 7.02 µM) | 6 mg/L (≈ 14 µM) | 0.5 mg/L (≈ 1.17 µM) | 0.5 mg/L (≈ 1.17 µM) | 0.5 mg/L (≈ 1.17 µM) | 0.38 mg/L (≈ 0.889 µM) | 0.5 mg/L (≈ 1.17 µM) | 0.5 mg/L (≈ 1.17 µM) | 0.5 mg/L (≈ 1.17 µM) | 0.5 mg/L (≈ 1.17 µM) | 0.75 mg/L (≈ 1.75 µM) | 0.19 mg/L (≈ 0.444 µM) | 0.38 mg/L (≈ 0.889 µM) | MIC (E. coli; Coli 8138 (penicillinase), Cineol 1 mg DMSO): 4 mg/L (≈ 9.36 µM); MIC (E. coli; Coli 8138 (penicillinase), Cineol 1 mg Tween/water): 4 mg/L (≈ 9.36 µM); MIC (E. coli; Coli 8138 (penicillinase), Cineol 4 mg DMSO): 4 mg/L (≈ 9.36 µM); MIC (E. coli; Coli 8138 (penicillinase), Cineol 4 mg Tween/water): 3 mg/L (≈ 7.02 µM); MIC (E. coli; Coli 8138 (penicillinase), Cineol 16 mg DMSO): 4 mg/L (≈ 9.36 µM); MIC (E. coli; Coli 8138 (penicillinase), Cineol 16 mg Tween/water): 1 mg/L (≈ 2.34 µM); MIC (E. coli; Coli 8138 (penicillinase), DMSO control (antibiotic alone)): 6 mg/L (≈ 14 µM); MIC (E. coli; Coli 8138 (penicillinase), ED control (antibiotic alone in distilled water)): 6 mg/L (≈ 14 µM); MIC (E. coli; Coli 8138 (penicillinase), Tween water control (antibiotic alone)): 6 mg/L (≈ 14 µM); MIC (e-test) (Pasteurella; [10]): 0.5 mg/L (≈ 1.17 µM); MIC (e-test) (Pasteurella; [11]): 0.5 mg/L (≈ 1.17 µM); MIC (e-test) (Pasteurella; strain 14014, 10 mg cineol TE): 0.38 mg/L (≈ 0.889 µM); MIC (e-test) (Pasteurella; [12]): 0.38 mg/L (≈ 0.889 µM); MIC (e-test) (Pasteurella; strain 14014, DMSO control): 0.38 mg/L (≈ 0.889 µM); MIC (e-test) (Pasteurella; strain 14014, ED Control): 0.38 mg/L (≈ 0.889 µM); MIC (e-test) (Pasteurella; strain 14014, TE control): 0.5 mg/L (≈ 1.17 µM)
O=C(O)c1cn(C2CC2)c2cc(N3CCNCC3)c(F)cc2c1=O [Ciprofloxacin, ciprofloxacin] | – | – | – | – | – | – | – | – | – | 0.004 mg/L (≈ 0.0121 µM) | 0.004 mg/L (≈ 0.0121 µM) | 0.003 mg/L (≈ 0.00905 µM) | 0.004 mg/L (≈ 0.0121 µM) | 0.006 mg/L (≈ 0.0181 µM) | 0.004 mg/L (≈ 0.0121 µM) | 0.006 mg/L (≈ 0.0181 µM) | 0.004 mg/L (≈ 0.0121 µM) | 0.006 mg/L (≈ 0.0181 µM) | – | – | colonies likely to be resistant mutants (Strain 10168/MRSA): invaded; MIC (e-test) (Pasteurella; strain 14013, 5 mg cineol DMSO): 0.012 mg/L (≈ 0.0362 µM); MIC (e-test) (Pasteurella; strain 14013, 5 mg cineol TE): 0.012 mg/L (≈ 0.0362 µM); MIC (e-test) (Pasteurella; strain 14013, 5 mg cineol water): 0.012 mg/L (≈ 0.0362 µM); MIC (e-test) (Pasteurella; strain 14013, 10 mg cineol DMSO): 0.012 mg/L (≈ 0.0362 µM); MIC (e-test) (Pasteurella; strain 14013, 10 mg cineol TE): 0.012 mg/L (≈ 0.0362 µM); MIC (e-test) (Pasteurella; strain 14013, 10 mg cineol water): 0.016 mg/L (≈ 0.0483 µM); MIC (e-test) (Pasteurella; strain 14013, DMSO control): 0.012 mg/L (≈ 0.0362 µM); MIC (e-test) (Pasteurella; strain 14013, ED control): 0.012 mg/L (≈ 0.0362 µM); MIC (e-test) (Pasteurella; strain 14013, TE control): 0.016 mg/L (≈ 0.0483 µM); colonies likely to be resistant mutants (Strain 9003/BLSE): Numerous
CCC[C@@H]1C[C@@H](C(=O)N[C@@H]([C@H]2O[C@H](SC)[C@H](O)[C@@H](O)[C@H]2O)[C@H](C)Cl)N(C)C1 [Clindamycin] | – | – | – | – | – | – | – | – | – | – | – | – | – | – | – | – | – | – | – | – | MIC (Staphylococcus; Cineol 1 mg DMSO): 0.094 mg/L (≈ 0.221 µM); MIC (Staphylococcus; Cineol 1 mg Tween/water): 0.064 mg/L (≈ 0.151 µM); MIC (Staphylococcus; Cineol 4 mg DMSO): 0.064 mg/L (≈ 0.151 µM); MIC (Staphylococcus; Cineol 4 mg Tween/water): 0.064 mg/L (≈ 0.151 µM); MIC (Staphylococcus; Cineol 16 mg DMSO): 0.047 mg/L (≈ 0.111 µM); MIC (Staphylococcus; Cineol 16 mg Tween/water): 0.047 mg/L (≈ 0.111 µM); MIC (Staphylococcus; DMSO control (antibiotic alone)): 0.064 mg/L (≈ 0.151 µM); MIC (Staphylococcus; ED control (antibiotic alone in distilled water)): 0.094 mg/L (≈ 0.221 µM); MIC (Staphylococcus; Tween water control (antibiotic alone)): 0.19 mg/L (≈ 0.447 µM)
C[C@@H](O)[C@H]1C(=O)N2C(C(=O)O)=C(S[C@@H]3CN[C@H](C(=O)N(C)C)C3)[C@H](C)[C@H]12 [Meropenem] | 0.064 mg/L (≈ 0.167 µM) | 0.064 mg/L (≈ 0.167 µM) | 0.064 mg/L (≈ 0.167 µM) | 0.047 mg/L (≈ 0.123 µM) | 0.064 mg/L (≈ 0.167 µM) | 0.1 mg/L (≈ 0.261 µM) | 0.094 mg/L (≈ 0.245 µM) | 0.047 mg/L (≈ 0.123 µM) | 0.094 mg/L (≈ 0.245 µM) | 0.006 mg/L (≈ 0.0156 µM) | 0.008 mg/L (≈ 0.0209 µM) | 0.006 mg/L (≈ 0.0156 µM) | 0.006 mg/L (≈ 0.0156 µM) | 0.008 mg/L (≈ 0.0209 µM) | 0.008 mg/L (≈ 0.0209 µM) | 0.008 mg/L (≈ 0.0209 µM) | 0.008 mg/L (≈ 0.0209 µM) | 0.023 mg/L (≈ 0.06 µM) | 0.012 mg/L (≈ 0.0313 µM) | 0.016 mg/L (≈ 0.0417 µM) | MIC (e-test) (Pasteurella; [10]): 0.016 mg/L (≈ 0.0417 µM); MIC (e-test) (Pasteurella; [11]): 0.016 mg/L (≈ 0.0417 µM); MIC (e-test) (Pasteurella; strain 14014, 10 mg cineol TE): 0.012 mg/L (≈ 0.0313 µM); MIC (e-test) (Pasteurella; [12]): 0.016 mg/L (≈ 0.0417 µM); MIC (e-test) (Pasteurella; strain 14014, DMSO control): 0.016 mg/L (≈ 0.0417 µM); MIC (e-test) (Pasteurella; strain 14014, ED Control): 0.012 mg/L (≈ 0.0313 µM); MIC (e-test) (Pasteurella; strain 14014, TE control): 0.012 mg/L (≈ 0.0313 µM)
